Results as given in ChEMBL document CHEMBL2440004, “The influence of saponins on cell membrane cholesterol” (Bioorg Med Chem, 2013).
Active and inactive are the calls of the source. The calls are words filed in the database; no cut-off is given here.

Tests used:
ECV-304 [1] = test: Cytotoxicity against human ECV304 cells after 72 hrs by MTT assay; format: functional, cell-based; settings: ECV-304, 72 h
ECV-304 [2] = test: Effect on [3H]cholesterol liberation from cell membrane of human ECV304 cells after 1 hr by liquid scintillation counting; format: functional, cell membranes
ECV-304 [3] = test: Reduction in [3H]cholesterol uptake in human ECV304 cells after 1 hr by liquid scintillation counting; format: functional, cell-based
ECV-304 [4] = test: Membrane toxicity against human ECV304 cells after 2 hrs by LDH release assay; format: functional, cell-based; settings: ECV-304, 2 h
ECV-304 [5] = test: Reduction in [3H]cholesterol content in endosomal/lysosomal membrane of human ECV304 cells at 5 uM after 1 hr by liquid scintillation counting; format: functional, cell membranes
ECV-304 [6] = test: Reduction in [3H]cholesterol content in cytoplasm membrane of human ECV304 cells at 5 uM after 1 hr by liquid scintillation counting; format: functional, cell membranes

Row | SMILES | IC50 (ECV-304 [1]) [µM] | Activity (ECV-304 [2]) | Activity (ECV-304 [3]) | IC50 (ECV-304 [4]) [µM] | Activity (ECV-304 [5]) | Activity (ECV-304 [6])
1 | COC(=O)[C@@]1(C)CC[C@]2(C(=O)O[C@@H]3O[C@H](CO)[C@@H](O)[C@H](O)[C@H]3O)CC[C@]3(C)C(=CC[C@@H]4[C@@]5(C)CC[C@H](O[C@@H]6O[C@H](C(=O)O)[C@@H](O)[C@H](O)[C@H]6O)C(C)(C)[C@@H]5CC[C@]43C)[C@@H]2C1 | > 100 | inactive | inactive | – | – | –
2 | CC[C@H](CC[C@@H](C)[C@H]1CC[C@H]2[C@@H]3CC=C4C[C@@H](O)CC[C@]4(C)[C@H]3CC[C@]12C)C(C)C | – | inactive | inactive | – | – | –
3 | C[C@@H]1O[C@H](O[C@H]2[C@@H](OC(=O)[C@]34CCC(C)(C)C[C@H]3C3=CC[C@@H]5[C@@]6(C)CC[C@H](O[C@@H]7O[C@H](C(=O)O)[C@@H](O)[C@H](O[C@H]8OC[C@@H](O)[C@H](O)[C@H]8O)[C@H]7O[C@@H]7O[C@H](CO)[C@H](O)[C@H](O)[C@H]7O)[C@@](C)(C=O)[C@@H]6CC[C@@]5(C)[C@]3(C)C[C@H]4O)O[C@H](C)[C@H](O)[C@@H]2O)[C@H](O)[C@H](O[C@@H]2O[C@H](CO)[C@@H](O)[C@H](O)[C@H]2O)[C@H]1O[C@H]1OC[C@@H](O)[C@H](O)[C@H]1O | 8 | Active | Dose-dependent effect | – | – | –
4 | CC1(C)[C@@H](O[C@H]2O[C@H](C(=O)O)[C@@H](O)[C@H](O)[C@H]2O[C@@H]2O[C@H](C(=O)O)[C@@H](O)[C@H](O)[C@H]2O)CC[C@]2(C)[C@H]3C(=O)C=C4[C@@H]5C[C@@](C)(C(=O)O)CC[C@]5(C)CC[C@@]4(C)[C@]3(C)CC[C@@H]12 [GLYCYRRHIZIN] | > 119 | inactive | inactive | > 238 | – | –
5 | C[C@H]1O[C@@H](O[C@H]2[C@H](O)[C@@H](O[C@H]3CC[C@]4(C)[C@H]5CC=C6[C@@H]7CC(C)(C)CC[C@]7(C(=O)O[C@@H]7O[C@H](CO[C@@H]8OC[C@](O)(CO)[C@H]8O)[C@@H](O)[C@H](O)[C@H]7O)CC[C@@]6(C)[C@]5(C)CC[C@H]4C3(C)C)O[C@@H](C(=O)O)[C@@H]2O[C@@H]2OC[C@@H](O)[C@H](O)[C@H]2O)[C@@H](O)[C@@H](O)[C@@H]1O | > 100 | inactive | inactive | – | – | –
6 | C[C@@H]1O[C@@H](O[C@H]2[C@H](O[C@H]3CC[C@@]4(C)[C@@H](CC[C@]5(C)[C@@H]4CC=C4[C@@H]6CC(C)(C)CC[C@]6(C(=O)O)CC[C@]45C)[C@]3(C)CO)OC[C@H](O)[C@@H]2O)[C@H](O)[C@H](O)[C@H]1O | – | inactive | Dose-dependent effect | – | – | –
7 | C[C@H]1O[C@H](O[C@H]2[C@H](O[C@H]3CC[C@]4(C)[C@H]5CC=C6[C@@H]7CC(C)(C)CC[C@]7(CO)[C@H](O)C[C@@]6(C)[C@]5(C)CC[C@H]4C3(C)C)O[C@H](C(=O)O)[C@H](O[C@H]3O[C@@H](CO[C@@H]4O[C@H](CO)[C@@H](O)[C@H](O)[C@H]4O)[C@@H](O)[C@@H](O)[C@@H]3O)[C@@H]2O)[C@@H](O)[C@@H](O)[C@@H]1O | 13 | Active | Dose-dependent effect | 58 | – | –
8 | C[C@@H]1O[C@@H](O[C@H]2[C@H](O[C@H]3CC[C@@]4(C)[C@@H](CC[C@]5(C)[C@@H]4CC=C4[C@@H]6CC(C)(C)CC[C@]6(C(=O)O[C@@H]6O[C@H](CO[C@@H]7O[C@H](CO)[C@@H](O[C@@H]8O[C@@H](C)[C@H](O)[C@@H](O)[C@H]8O)[C@H](O)[C@H]7O)[C@@H](O)[C@H](O)[C@H]6O)CC[C@]45C)[C@]3(C)CO)OC[C@H](O)[C@@H]2O)[C@H](O)[C@H](O)[C@H]1O [KALOPANAXSAPONIN B] | > 164 | inactive | inactive | > 164 | – | –
9 | C[C@@H]1O[C@@H](O[C@H]2[C@@H](O)[C@H](O[C@H]3O[C@@H](C)[C@H](O[C@H]4OC[C@@H](O)[C@H](O[C@H]5OC[C@@H](O)[C@H](O)[C@H]5O)[C@H]4O)[C@@H](O)[C@H]3O)[C@H](OC(=O)[C@]34CCC(C)(C)C[C@H]3C3=CC[C@@H]5[C@@]6(C)CC[C@H](O[C@@H]7O[C@H](C(=O)O)[C@@H](O)[C@H](O[C@@H]8OC[C@H](O)[C@@H](O)[C@@H]8O)[C@H]7O[C@@H]7O[C@H](CO)[C@H](O)[C@H](O)[C@H]7O)[C@@](C)(C=O)[C@@H]6CC[C@@]5(C)[C@]3(C)CC4)O[C@H]2C)[C@@H](O)[C@H](O)[C@H]1O | 9 | Active | Dose-dependent effect | 21 | inactive | Active
